Reference: patent US20060154323A1, “Method for obtaining dynamic and structural data pertaining to proteins and protein/ligand complexes” (ProSpect Pharma, priority 2002, published 2006)

What was measured:
[1] = biological target: T1, MUP (Mus musculus, UniProt P11588); assay: Binding of small hydrophobic ligands to MUP (Kd)
T1 construct: made in house; host or cells: E. coli M15 cells with vector pqe30 MUP
T1 sequence (P11588 19-180): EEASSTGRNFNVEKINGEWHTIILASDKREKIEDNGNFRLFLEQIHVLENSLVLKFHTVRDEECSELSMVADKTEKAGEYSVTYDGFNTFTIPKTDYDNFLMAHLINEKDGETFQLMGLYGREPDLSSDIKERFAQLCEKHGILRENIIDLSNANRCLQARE

[2] = biological target: T2, Mouse Urinary Protein (Mus musculus, UniProt P11588); assay: 13C NMR relaxation (T1, T2) of valine 13CHD2-labeled MUP in absence and presence of ligand; conditions: for T1, Change / T2, Change: Protein vs Bound Protein; for T1, Bound Protein / T2, Bound Protein: 298 K;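 as to T1, Bound Protein: unit milliseconds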;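 as to T2, Bound Protein: unit milliseconds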
T2 construct: made in house; host or cells: E. coli M15 cells with vector pqe30 MUP
T2 sequence (P11588 19-180): T1 sequence (P11588 19-180)
Protocol: A 15 mg sample of L-valine-α-D-^12CD(^13CHD2)2 labeled MUP was dissolved in 650 μL phosphate buffered saline (10 mM potassium phosphate; 200 mM sodium chloride), to which was added 50 μL deuterium oxide. ^13C Relaxation rates (R2 and R1) of ^13CHD2 groups were determined using pulse sequences as described in Ishima et al., J. Am. Chem. Soc. 121:11589-11590 (1999). Spectral parameters were as follows: spectral width in the ^13C dimension, 900 Hz; spectral width in the ^1H dimension, 5200 Hz; number of real data points in the ^13C dimension, 128; number of real points in the ^1H dimension, 1408; number of transients per t1 increment, 8; probe temperature, 298 K. Prior to two-dimensional Fourier transformation, free induction decays were apodized with cosine-bell windowing functions according to known methods.
The NMR analysis was then repeated following addition of the small molecule ligand 1 μL of isobutyl pyrazine or 1 μL of isopropyl pyrazine to separate solutions of MUP. The data shown below in Tables I and II and in FIG. 8 were obtained, clearly showing the changes in T1 and T2 values obtained on addition of these small molecule ligands.

[3] = biological target: T3, Major Urinary Protein (Mus musculus, UniProt P11588); assay: S2axis order parameters of valine methyl groups from 600 MHz 13C R1/R2 relaxation of valine-enriched MUP and its complexes; conditions: for S^2axis: MUP-ligand complex, 600 MHz, 30° C., pH 7.0
T3 construct: made in house; host or cells: E. coli M15 cells with vector pqe30 MUP
T3 sequence (P11588 19-180): T1 sequence (P11588 19-180)
Protocol: Samples of [^13C^γ1,^γ2HD2]-U-^2H valine enriched MUP both alone and complexed with 2-methoxy-3-isopropylpyrazine and 2-methoxy-3-isobutylpyrazine were prepared from a single sample at pH 7.0 and a protein concentration of 1 mM. A further sample of methyl-^13C, ^2H enriched MUP was prepared at pH 7.0 and a protein concentration of 0.5 mM. Longitudinal (R1) and transverse (R2) ^13C relaxation rates were determined essentially as described by Ishima et al., J. Am. Chem. Soc. 121:11589-11590, 1999. All spectra were recorded at a proton frequency of 600 MHz and a probe temperature of 30° C. R1 rates were determined with relaxation delay times of 16, 64, 128, 240, 400, 720, 1120, 1600, 2240 and 2880 milliseconds. R2 rates were determined with relaxation delay times of 16, 32, 48, 64, 96, 160, 192, 240 and 288 milliseconds, and an effective field strength of 2 kHz. Relaxation data were fit to a single exponential decay function I=I0exp(−tR), where I0 is the initial resonance intensity, t is the relaxation delay time and R is the relaxation rate (R1 or R2). Relaxation data were fitted to the Lipari-Szabo model-free spectral density of the form: J(ω)=S^2τm/(1+ω^2τ^2m)+(1−S^2)τi/(1+ω^2τi^2), where τi^−1=τM^−1+τe^−1, τM is the overall molecular tumbling correlation time and τe is the effective internal correlation time. See Lipari and Szabo, J. Am. Chem. Soc. 104:4546-4559, 1982. This equation is valid for fast internal motions, τe<<τM, under which conditions the order parameter for methyl CH dipolar relaxation is given by S^2=Saxis^2[P2(cos θH]^2. Saxis^2 is the order parameter of the methyl rotation axis and θH is the angle made by the axis and the CH bond vector. A global rotational correlation time of […] was used for these calculations, according to the previously reported value. Zidek et al., Nature Str. Biol. 6:1118-1121, 1999. Although the valine residues were perdeuterated at non-methyl positions, the protein was otherwise protonated, and dipolar relaxation due to these “external” protons is not negligible for ^13C relaxation. Thus, by analogy with the work of Ishima et al. J. Am. Chem. Soc. 123:6164-6171, 2001, the contribution of these external protons to ^13C R2 values was estimated at 25% from the X-ray coordinates of MUP. Consequently, measured ^13C R^2 rates were multiplied by 0.75 to account for these external dipolar relaxation processes.

[4] = biological target: T1, MUP; assay: 13C-1H HSQC spectra of valine-enriched MUP complexes; conditions: 13C-1H HSQC of complexes with valine-enriched MUP
[5] = valine methyl 59.HG1 (first line)
[6] = valine methyl 59.HG1 (second line)

COc1nccnc1C(C)C [2-methoxy-3-isopropylpyrazine]
Kd [1]: 560 nM
T1, Change ([2]; 12.HG1): −8.387 milliseconds
T2, Change ([2]; 12.HG1): −8.329 milliseconds
T1, Change ([2]; 12.HG2): −40.959 milliseconds
T2, Change ([2]; 12.HG2): −9.198 milliseconds
T1, Change ([2]; 47.HG1): 2.421 milliseconds
T2, Change ([2]; 47.HG1): −13.342 milliseconds
T1, Change ([2]; 47.HG2): −76.984 milliseconds
T2, Change ([2]; 47.HG2): −4.561 milliseconds
T1, Change ([2]; 53.HG1): −50.272 milliseconds
T2, Change ([2]; 53.HG1): −14.174 milliseconds
T1, Change ([2]; 53.HG2): 8.962 milliseconds
T2, Change ([2]; 53.HG2): −7.866 milliseconds
T1, Change ([2]; 59.HG1 (first line)): −91.665 milliseconds
T2, Change ([2]; 59.HG1 (first line)): −16.574 milliseconds
T1, Change ([2]; 59.HG1 (second line)): −49.656 milliseconds
T2, Change ([2]; 59.HG1 (second line)): −6.181 milliseconds
T1, Change ([2]; 70.HG1): 209.318 milliseconds
T2, Change ([2]; 70.HG1): −41.741 milliseconds
T1, Change ([2]; 70.HG2): 86.431 milliseconds
T2, Change ([2]; 70.HG2): 11.930 milliseconds
T1, Change ([2]; 82.HG1): −10.201 milliseconds
T2, Change ([2]; 82.HG1): 10.857 milliseconds
T1, Change ([2]; 82.HG2): 0.991 milliseconds
T2, Change ([2]; 82.HG2): 19.924 milliseconds
contribution of valine side-chains to the entropy of binding ([2]; from relaxation data in the presence of ligand): do not contribute significantly
T1, Bound Protein ([2]; valine methyl 12.HG1): 1733.309 milliseconds
T2, Bound Protein ([2]; valine methyl 12.HG1): 161.437 milliseconds
T1, Bound Protein ([2]; valine methyl 12.HG2): 1509.370 milliseconds
T2, Bound Protein ([2]; valine methyl 12.HG2): 192.512 milliseconds
T1, Bound Protein ([2]; valine methyl 47.HG1): 1626.298 milliseconds
T2, Bound Protein ([2]; valine methyl 47.HG1): 168.574 milliseconds
T1, Bound Protein ([2]; valine methyl 47.HG2): 1067.605 milliseconds
T2, Bound Protein ([2]; valine methyl 47.HG2): 155.315 milliseconds
T1, Bound Protein ([2]; valine methyl 53.HG1): 2283.543 milliseconds
T2, Bound Protein ([2]; valine methyl 53.HG1): 177.873 milliseconds
T1, Bound Protein ([2]; valine methyl 53.HG2): 1355.764 milliseconds
T2, Bound Protein ([2]; valine methyl 53.HG2): 158.149 milliseconds
T1, Bound Protein [2, 5]: 1374.428 milliseconds
T2, Bound Protein [2, 5]: 195.222 milliseconds
T1, Bound Protein [2, 6]: 1572.793 milliseconds
T2, Bound Protein [2, 6]: 153.897 milliseconds
T1, Bound Protein ([2]; valine methyl 70.HG1): 1872.254 milliseconds
T2, Bound Protein ([2]; valine methyl 70.HG1): 162.943 milliseconds
T1, Bound Protein ([2]; valine methyl 70.HG2): 1077.097 milliseconds
T2, Bound Protein ([2]; valine methyl 70.HG2): 150.103 milliseconds
T1, Bound Protein ([2]; valine methyl 82.HG1): 925.102 milliseconds
T2, Bound Protein ([2]; valine methyl 82.HG1): 213.526 milliseconds
T1, Bound Protein ([2]; valine methyl 82.HG2): 668.810 milliseconds
T2, Bound Protein ([2]; valine methyl 82.HG2): 203.529 milliseconds
changes in Saxis^2 of the six valine residues in MUP upon binding [3]: only minor changes
S^2axis ([3]; Val-12 C^γ1): 0.90
S^2axis ([3]; Val-12 C^γ2): 0.69
S^2axis ([3]; Val-47 C^γ1): 0.84
S^2axis ([3]; Val-47 C^γ2): 0.90
S^2axis ([3]; Val-53 C^γ1): 0.80
S^2axis ([3]; Val-53 C^γ2): 0.85
S^2axis ([3]; Val-59 C^γ1): 0.68
S^2axis ([3]; Val-59 C^γ2): 0.86
S^2axis ([3]; Val-70 C^γ1): 0.85
S^2axis ([3]; Val-70 C^γ2): 0.77
S^2axis ([3]; Val-82 C^γ1): 0.50
S^2axis ([3]; Val-82 C^γ2): 0.48
contribution of valine side-chains to the entropy of binding ([3]; from computations of Saxis^2 values, free protein and complexes): do not contribute significantly
shift perturbations of Val 82 γ1 and γ2 correlations [4]: Significant shift perturbations
